Test results reported in ChEMBL document CHEMBL1151872, “Antagonists of the human A(2A) receptor. Part 5: Highly bio-available pyrimidine-4-carboxamides” (Bioorg Med Chem Lett, 2009).
Values after ≈ are worked out from the molar mass of the structure shown.

Legend:
[1] = molecular target: T1, Adenosine receptor A2a (Homo sapiens, UniProt P29274)
Description: Displacement of [3H]CGS21680 from human adenosine A2A receptor

[2] = molecular target: T2, Adenosine receptor A1 (Homo sapiens, UniProt P30542)
T2 sequence (P30542 whole entry): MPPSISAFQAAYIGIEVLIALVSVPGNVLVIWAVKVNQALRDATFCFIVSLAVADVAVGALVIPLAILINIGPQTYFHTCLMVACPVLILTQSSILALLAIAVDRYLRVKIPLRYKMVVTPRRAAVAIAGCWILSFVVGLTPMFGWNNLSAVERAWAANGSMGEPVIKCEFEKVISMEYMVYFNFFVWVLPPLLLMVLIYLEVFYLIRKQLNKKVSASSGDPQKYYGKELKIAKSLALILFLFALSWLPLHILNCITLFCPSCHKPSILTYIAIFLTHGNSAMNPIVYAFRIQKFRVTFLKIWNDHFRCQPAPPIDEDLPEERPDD
Description: Displacement of [3H]CGS21680 from human adenosine A1 receptor

[3] = molecular target: T3, Adenosine receptor A3 (Homo sapiens, UniProt P0DMS8); assay: Binding affinity to adenosine A3 receptor
T3 sequence (P0DMS8 whole entry): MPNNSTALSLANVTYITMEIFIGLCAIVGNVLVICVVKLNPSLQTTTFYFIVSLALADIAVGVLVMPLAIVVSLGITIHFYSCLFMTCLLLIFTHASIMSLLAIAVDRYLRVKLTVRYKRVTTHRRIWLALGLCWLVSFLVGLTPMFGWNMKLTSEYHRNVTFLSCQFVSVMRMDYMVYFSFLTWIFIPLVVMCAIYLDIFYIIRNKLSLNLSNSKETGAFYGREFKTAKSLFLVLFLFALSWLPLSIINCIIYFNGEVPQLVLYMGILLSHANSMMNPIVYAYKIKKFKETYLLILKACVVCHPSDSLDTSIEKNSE

[4] = tested on: Brain; assay: Drug uptake in Sprague-Dawley rat brain at 2 mg/kg, iv; assay type: ADME, organism-based; set-up: dose 2 mg/kg, route intravenous; details: in vivo
[5] = species: Homo sapiens; assay: Selectivity for human adenosine A2A receptor over human adenosine A2B receptor
[6] = molecular target: T1, Adenosine receptor A2a; remark: listed apart in the source
Description: Agonist activity against human adenosine A2A receptor assessed as calcium mobilization by FLIPR assay

[7] = Tmax in Sprague-Dawley rat plasma; assay type: ADME, organism-based
[8] = Half life in po dosed Sprague-Dawley rat brain; assay type: ADME, organism-based
[9] = species: Homo sapiens; assay: Selectivity for human adenosine A2A receptor over human adenosine A3 receptor
[10] = tested on: Mus musculus; assay: Reversal of haloperidol-induced locomotor movement deficit in po dosed mouse assessed as minimum effective dose administered 15 mins before testing; details: read-out: MED
[11] = Half life in po dosed Sprague-Dawley rat plasma; assay type: ADME, organism-based
[12] = Inhibition of Cytochrome P450; assay type: ADME
[13] = molecular target: T4, Adenosine receptor A2b (Homo sapiens, UniProt P29275); assay: Binding affinity to adenosine A2B receptor
T4 sequence (P29275 whole entry): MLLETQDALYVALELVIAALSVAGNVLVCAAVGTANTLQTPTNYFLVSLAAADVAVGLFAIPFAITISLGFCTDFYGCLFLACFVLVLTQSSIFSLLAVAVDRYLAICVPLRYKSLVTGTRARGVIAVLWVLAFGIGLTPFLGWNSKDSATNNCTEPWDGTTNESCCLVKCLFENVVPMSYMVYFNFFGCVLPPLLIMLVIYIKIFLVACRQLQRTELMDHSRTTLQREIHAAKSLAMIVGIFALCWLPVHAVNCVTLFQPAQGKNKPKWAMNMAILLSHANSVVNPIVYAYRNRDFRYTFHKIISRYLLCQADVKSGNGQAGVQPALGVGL

[14] = Aqueous solubility of the compound; assay type: physicochemical

T1 sequence (P29274 whole entry): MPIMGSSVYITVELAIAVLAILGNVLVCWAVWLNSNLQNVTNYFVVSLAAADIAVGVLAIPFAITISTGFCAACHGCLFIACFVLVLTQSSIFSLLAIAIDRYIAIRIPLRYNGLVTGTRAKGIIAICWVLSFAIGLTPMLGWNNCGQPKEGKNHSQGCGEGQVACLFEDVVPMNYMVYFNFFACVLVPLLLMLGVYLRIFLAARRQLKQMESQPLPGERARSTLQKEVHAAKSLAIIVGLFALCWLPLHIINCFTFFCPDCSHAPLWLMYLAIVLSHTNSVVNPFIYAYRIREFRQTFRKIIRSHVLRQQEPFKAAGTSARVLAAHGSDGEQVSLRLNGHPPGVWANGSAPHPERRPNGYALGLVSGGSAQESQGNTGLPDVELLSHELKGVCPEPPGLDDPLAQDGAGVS

Ki [1]	Ki [2]	Ki [3]	EC50 [6]	Ki [13]	SMILES	minimal effective dose [10]	also measured
20 nM	140 nM	–	–	–	Nc1nc(C(=O)NCc2ccc(F)cc2)cc(-c2ccco2)n1	–	–
3.7 nM	12.2 nM	507 nM	≥ 10000 nM	184 nM	Nc1nc(C(=O)NCc2cccc(Cl)c2)cc(-c2ccco2)n1	–	–
23 nM	311 nM	–	–	–	Nc1nc(NC(=O)c2ccccc2F)c([N+](=O)[O-])c(-c2ccco2)n1	–	–
17.5 nM	80 nM	–	–	–	Nc1nc(C(=O)NCc2ccc(Cl)cc2)cc(-c2ccco2)n1	–	–
3.5 nM	54 nM	335 nM	≥ 10000 nM	67 nM	Nc1nc(C(=O)NCc2ccccc2F)cc(-c2ccco2)n1	30 mg/kg	–
170 nM	770 nM	–	–	–	COc1ccccc1C(=O)Nc1nc(N)nc(-c2ccco2)c1[N+](=O)[O-]	–	–
388 nM	1340 nM	–	–	–	Nc1nc(C(=O)NCc2ccncc2)cc(-c2ccco2)n1	–	–
9.3 nM	260 nM	–	–	–	Nc1nc(C(=O)NCc2cccc(CO)n2)cc(-c2ccco2)n1	30 mg/kg	–
3.5 nM	34.5 nM	402 nM	≥ 10000 nM	156 nM	COc1ccccc1CNC(=O)c1cc(-c2ccco2)nc(N)n1	20 mg/kg	–
9.5 nM	102 nM	1850 nM	≥ 10000 nM	1240 nM	Cc1ccc(CNC(=O)c2cc(-c3ccco3)nc(N)n2)cc1	–	–
–	–	1390 nM	–	754 nM	Nc1nc(C(=O)NCc2ccccn2)cc(-c2ccco2)n1	3 mg/kg	–
220 nM	3540 nM	–	–	–	Nc1nc(NC(=O)c2cccnc2)c([N+](=O)[O-])c(-c2ccco2)n1	–	–

More lines, now with the values behind:

SMILES	Ki [1]	Ki [2]	Ki [3]	EC50 [6]	Ki [13]	minimal effective dose [10]	also measured
Nc1nc(NC(=O)c2ccncc2)c([N+](=O)[O-])c(-c2ccco2)n1	153 nM	2000 nM	–	–	–	–	–
COCc1cccc(CNC(=O)c2cc(-c3ccco3)nc(N)n2)n1	1.7 nM	42 nM	1740 nM	≥ 10000 nM	460 nM	0.1 mg/kg	Drug uptake [4]: 85%; Ratio Ki [5]: < 1000; Tmax [7]: 0.25 h; half-life [8]: 1 h; Ratio Ki [9]: < 1000; half-life [11]: 1 h; Activity [12]: Not Active; solubility [14]: 450 µM (≈ 153 µg/mL)
Nc1nc(C(=O)NCc2ccccc2)cc(-c2ccco2)n1	7.6 nM	58 nM	857 nM	≥ 10000 nM	858 nM	–	–
Cc1ccccc1CNC(=O)c1cc(-c2ccco2)nc(N)n1	2.2 nM	73 nM	586 nM	≥ 10000 nM	917 nM	30 mg/kg	–
CCn1c(=O)c2c(nc(/C=C/c3ccc(OC)c(OC)c3)n2C)n(CC)c1=O [ISTRADEFYLLINE]	–	–	–	–	–	0.3 mg/kg	–
COc1ccccc1CC(=O)Nc1nc(N)nc(-c2ccco2)c1[N+](=O)[O-]	10 nM	884 nM	–	–	–	–	–
Nc1nc(C(=O)NCc2cccc(F)c2)cc(-c2ccco2)n1	4.8 nM	39 nM	1060 nM	≥ 10000 nM	924 nM	–	–
Cc1cccc(CNC(=O)c2cc(-c3ccco3)nc(N)n2)c1	2.6 nM	38 nM	1530 nM	≥ 10000 nM	402 nM	3 mg/kg	Ratio Ki [5]: < 1000; Ratio Ki [9]: < 1000
COc1cccc(CNC(=O)c2cc(-c3ccco3)nc(N)n2)c1	6.1 nM	47 nM	1100 nM	≥ 10000 nM	121 nM	–	–
Nc1nc(C(=O)NCc2cccnc2)cc(-c2ccco2)n1	9.4 nM	124 nM	6440 nM	≥ 10000 nM	5870 nM	–	Ratio Ki [5]: < 1000; Ratio Ki [9]: < 1000
Nc1nc(NC(=O)c2ccccc2OC(F)(F)F)c([N+](=O)[O-])c(-c2ccco2)n1	16 nM	298 nM	–	–	–	–	–
COc1ccc(CNC(=O)c2cc(-c3ccco3)nc(N)n2)cc1	79 nM	157 nM	–	–	–	–	–
Nc1nc(C(=O)NCc2ccco2)cc(-c2ccco2)n1	14 nM	214 nM	–	–	–	–	–
Nc1cccc(CNC(=O)c2cc(-c3ccco3)nc(N)n2)n1	7 nM	131 nM	1480 nM	≥ 10000 nM	444 nM	1 mg/kg	–
Nc1nc(C(=O)NCc2ccccc2Cl)cc(-c2ccco2)n1	2.6 nM	72 nM	414 nM	≥ 10000 nM	137 nM	30 mg/kg	–
Nc1nc(NC(=O)c2ccccc2)c([N+](=O)[O-])c(-c2ccco2)n1	308 nM	2060 nM	–	–	–	–	–
